The source of these data is ChEMBL document CHEMBL3751845, “Synthesis, molecular docking and biological evaluation of N,N-disubstituted 2-aminothiazolines as a new class of butyrylcholinesterase and carboxylesterase inhibitors” (Bioorg Med Chem, 2016).

Molecules are shown by their SMILES. pIC50, pKi: −log10 of the molar value. Some results are limits rather than exact numbers.

Data set [1] concerns the target T1, Cholinesterase (Equus caballus, UniProt P81908). Description: Inhibition of equine serum BChE using butyrylthiocholine iodide as substrate preincubated for 10 mins followed by substrate addition by Ellman's method. (In general: Ellman's reagent forms a yellow product with free thiols.)
Data set [2] has as its target T2, Liver carboxylesterase (Sus scrofa, UniProt Q29550).
T2 sequence (Q29550 whole entry): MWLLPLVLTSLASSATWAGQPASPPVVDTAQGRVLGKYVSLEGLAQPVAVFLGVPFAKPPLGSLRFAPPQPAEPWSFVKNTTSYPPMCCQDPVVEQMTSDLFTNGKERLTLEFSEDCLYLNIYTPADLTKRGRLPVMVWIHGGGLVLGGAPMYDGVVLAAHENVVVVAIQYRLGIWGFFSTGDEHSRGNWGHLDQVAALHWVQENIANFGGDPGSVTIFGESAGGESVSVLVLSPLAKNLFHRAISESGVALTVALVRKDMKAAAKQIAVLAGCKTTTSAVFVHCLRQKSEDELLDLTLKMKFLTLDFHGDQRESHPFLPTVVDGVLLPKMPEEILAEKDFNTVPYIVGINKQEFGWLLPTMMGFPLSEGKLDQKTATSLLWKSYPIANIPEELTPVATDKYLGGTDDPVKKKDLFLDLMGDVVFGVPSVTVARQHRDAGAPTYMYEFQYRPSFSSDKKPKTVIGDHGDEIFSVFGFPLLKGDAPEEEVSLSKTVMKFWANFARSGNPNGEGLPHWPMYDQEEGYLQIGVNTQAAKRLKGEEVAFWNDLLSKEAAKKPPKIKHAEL
The experiment in a line: Inhibition of porcine liver carboxylesterase using 4-nitrophenol acetate as substrate by spectrophotometric analysis. Conditions: for pIC50: read-out: IC50; call rule not given here.

The target in data set [3] is T1, Cholinesterase. The experiment in a line: Competitive inhibition of equine serum BChE using butyrylthiocholine iodide as substrate assessed as steady state inhibition constant preincubated for 10 mins followed by substrate addition by Lineweaver-Burk double reciprocal plot analysis.
The target in data set [4] is T1, Cholinesterase. The experiment in a line: Noncompetitive inhibition of equine serum BChE using butyrylthiocholine iodide as substrate assessed as steady state inhibition constant preincubated for 10 mins followed by substrate addition by Lineweaver-Burk double reciprocal plot analysis.
A short description of data set [5]: Cytotoxicity against human fetal MSC assessed as reduction in cell viability at <30 uM after 72 hrs by MTT assay. (In general: Formazan colour is commonly taken as a measure of viable cells.)
In data set [6] the target is T3, Acetylcholinesterase (Homo sapiens, UniProt P22303).
T3 sequence (P22303 whole entry): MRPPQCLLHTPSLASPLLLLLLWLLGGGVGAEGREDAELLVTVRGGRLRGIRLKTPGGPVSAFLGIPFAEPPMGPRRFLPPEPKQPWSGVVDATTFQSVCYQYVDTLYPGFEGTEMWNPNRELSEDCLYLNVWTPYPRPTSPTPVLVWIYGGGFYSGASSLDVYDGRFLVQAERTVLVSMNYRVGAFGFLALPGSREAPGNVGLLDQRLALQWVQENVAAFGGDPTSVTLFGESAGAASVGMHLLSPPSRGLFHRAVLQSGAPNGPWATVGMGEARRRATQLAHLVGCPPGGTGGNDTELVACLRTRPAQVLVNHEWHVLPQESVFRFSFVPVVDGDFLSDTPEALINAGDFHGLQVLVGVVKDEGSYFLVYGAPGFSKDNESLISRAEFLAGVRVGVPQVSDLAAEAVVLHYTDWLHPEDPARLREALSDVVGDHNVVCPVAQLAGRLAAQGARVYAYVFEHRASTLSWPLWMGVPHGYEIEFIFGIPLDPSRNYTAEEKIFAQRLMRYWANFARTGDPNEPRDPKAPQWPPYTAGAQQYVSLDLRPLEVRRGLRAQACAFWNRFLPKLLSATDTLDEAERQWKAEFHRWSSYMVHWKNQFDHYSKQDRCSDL
Description: (§1) Inhibition of human erythrocyte AChE using acetylthiocholine iodide as substrate preincubated for 10 mins followed by substrate addition by Ellman's method
Data set [7] deals with T2, Liver carboxylesterase. The experiment in a line: Noncompetitive inhibition of porcine liver carboxylesterase using 4-nitrophenol acetate as substrate assessed as steady state inhibition constant preincubated for 10 mins followed by substrate addition by Lineweaver-Burk double reciprocal plot analysis.
The target in data set [8] is T3, Acetylcholinesterase. The source holds these as a separate data set.
Description: as §1

T1 sequence (P81908 whole entry): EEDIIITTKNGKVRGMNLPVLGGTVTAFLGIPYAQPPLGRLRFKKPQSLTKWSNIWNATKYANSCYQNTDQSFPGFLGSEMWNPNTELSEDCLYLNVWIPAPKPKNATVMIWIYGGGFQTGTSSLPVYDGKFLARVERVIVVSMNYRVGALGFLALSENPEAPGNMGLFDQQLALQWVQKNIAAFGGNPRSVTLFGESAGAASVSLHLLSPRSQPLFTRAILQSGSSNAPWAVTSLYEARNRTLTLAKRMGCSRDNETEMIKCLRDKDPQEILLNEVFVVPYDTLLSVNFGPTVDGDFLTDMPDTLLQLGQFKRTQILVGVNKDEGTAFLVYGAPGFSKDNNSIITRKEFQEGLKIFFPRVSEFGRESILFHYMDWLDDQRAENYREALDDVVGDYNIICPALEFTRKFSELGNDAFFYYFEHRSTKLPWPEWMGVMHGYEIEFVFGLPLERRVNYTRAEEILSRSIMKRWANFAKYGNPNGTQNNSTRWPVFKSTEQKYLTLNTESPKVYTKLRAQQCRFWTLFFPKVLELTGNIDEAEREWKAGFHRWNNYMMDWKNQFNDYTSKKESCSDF

For orientation: pIC50 means the negative decadic logarithm of the IC50, by convention in mol/L. In general, pKi refers to the Ki on a negative log10 scale, so that one unit is a factor of ten. For the compound `Br.Clc1ccc(CN(Cc2cccnc2)C2=NCC(CBr)S2)cc1` (stereo unspecified), the negative-log IC50 (pIC50) in data set [1] was 4.52; in data set [2], < 4.00. In addition, the pKi in data set [3] is 5.02; in data set [4], 4.70. Further, the Activity result in data set [5] is listed as “Non-toxic”. The IC50 entry in data set [6] is given as “Not Active”.

Turning to `CC(C)(C)c1ccc(CN(Cc2ccccc2)C2=NCC(CI)S2)cc1.I` (stereo unspecified), the negative-log IC50 (pIC50) was 6.11 in data set [1] and 6.66 in data set [2]. Besides, the pKi in data set [3] is 6.57; in data set [4], 5.92; in data set [7], 6.40. For the same compound, in data set [5], the Activity result is recorded as “Non-toxic”. Besides, the IC50 result in data set [6] is “Not Active”.

As to `I.ICC1CN=C(Nc2ccc3c(c2)oc2ccccc23)S1` (stereo unspecified), the pIC50 in data set [1] and in data set [2] was < 4.00 each time. Besides, the IC50 entry in data set [6] is recorded as “Not Active”.

Regarding `COc1ccc(CN(Cc2ccccc2)C2=NCC(CI)S2)cc1OC` (stereo unspecified), the pIC50 was 4.70 in data set [1], < 4.00 in data set [2] and < 4.00 in data set [8].

On to `Br.COc1ccc(CN(Cc2ccccc2)C2=NCC(CBr)S2)cc1` (stereo unspecified), for which the pIC50 was 4.47 in data set [1] and 5.31 in data set [2]. Besides, the pKi in data set [7] was 5.13. Besides, in data set [5], the Activity entry is “Non-toxic”. In addition, the IC50 result in data set [6] is reported as “Not Active”.

In the case of `COc1ccc(CN(Cc2ccccc2)C2=NCC(CI)S2)cc1.I` (stereo unspecified), the results for the pIC50 in data set [1] and in data set [2] were 4.60 and 5.33, respectively. In addition, in data set [7], the pKi is 5.11. The Activity result in data set [5] was “Non-toxic”. Also, the IC50 entry in data set [6] is “Not Active”.

On to `Br.Clc1ccccc1CN(Cc1cccnc1)C1=NCC(CBr)S1` (stereo unspecified), for which the results for the pIC50 in data set [1] and in data set [2] were 4.60 and < 4.00, respectively. For the same compound, the IC50 entry in data set [6] is “Not Active”.

As for `Br.CC(c1ccccc1)N(Cc1ccccc1)C1=NCC(CBr)S1` (stereo unspecified), the pIC50 in data set [1] is 4.85; in data set [2], < 4.00. In data set [6], the IC50 entry is listed as “Not Active”.

Take `Br.BrCC1CN=C(N(Cc2ccccc2)Cc2ccccc2)S1` (stereo unspecified): the pIC50 in data set [1] was 4.59; in data set [2] it was 4.49. The IC50 entry in data set [6] is listed as “Not Active”.

With `Clc1ccccc1CN(Cc1cccnc1)C1=NCC(CI)S1.I` (stereo unspecified), the pIC50 is 4.68 in data set [1] and < 4.00 in data set [2]. In addition, the IC50 entry in data set [6] was “Not Active”.

As to `Clc1ccccc1CN(Cc1ccccc1)C1=NCC(CI)S1.I` (stereo unspecified), the negative logarithm of the IC50 (pIC50) is 4.36 in data set [1] and 3.93 in data set [2]. For the same compound, the IC50 entry in data set [6] is “Not Active”.

As for `CC(C)(C)c1cc(CN(Cc2ccccc2)C2=NCC(CI)S2)cc(C(C)(C)C)c1O.I` (stereo unspecified), the pIC50 in data set [1] is < 4.00. Also, the IC50 result in data set [2] and in data set [6] was “Not Active” in each case.

For the compound `Br.CC(C)c1ccc(CN(Cc2ccccc2)C2=NCC(CBr)S2)cc1` (stereo unspecified), the pIC50 in data set [1] was 4.96; in data set [2], 5.59. In addition, in data set [7], the pKi was 5.45. Further, the Activity entry in data set [5] is “Non-toxic”. Besides, the IC50 result in data set [6] is “Not Active”.

As to `I.ICC1CN=C(N(Cc2ccccc2)Cc2ccccc2)S1` (stereo unspecified), the pIC50 is 4.60 in data set [1] and 4.34 in data set [2]. Moreover, the IC50 entry in data set [6] was “Not Active”.

Consider `Clc1ccc(CN(Cc2cccnc2)C2=NCC(CI)S2)cc1.I` (stereo unspecified), for which the results for the pIC50 in data set [1], in data set [2] and in data set [8] were 5.61, 4.74 and < 4.00, respectively. Moreover, the values for the negative logarithm of the Ki (pKi) in data set [3] and in data set [4] were 6.17 and 5.44, respectively. In data set [5], the Activity result is reported as “Non-toxic”.

Turning to `Br.Fc1ccc(CN(Cc2ccccc2)C2=NCC(CBr)S2)cc1` (stereo unspecified), the pIC50 was 4.42 in data set [1] and 4.40 in data set [2]. Besides, in data set [6], the IC50 result is recorded as “Not Active”.

For the compound `CC(c1ccccc1)N(Cc1ccccc1)C1=NCC(CI)S1.I` (stereo unspecified), the figures for the pIC50 in data set [1] and in data set [2] were < 4.00 and 4.72, respectively. The IC50 result in data set [6] was “Not Active”.

As for `Fc1ccc(CN(Cc2ccccc2)C2=NCC(CI)S2)cc1.I` (stereo unspecified), the pIC50 in data set [1] is 4.77; in data set [2], 4.10. The IC50 result in data set [6] is on record as “Not Active”.

As for `Br.CC(C)(C)c1ccc(CN(Cc2ccccc2)C2=NCC(CBr)S2)cc1` (stereo unspecified), the results for the pIC50 in data set [1] and in data set [2] were 5.63 and 6.49, respectively. For the same compound, the results for the pKi in data set [3] and in data set [7] were 6.21 and 6.36, respectively. In data set [5], the Activity result is reported as “Non-toxic”. In addition, the IC50 result in data set [6] is “Not Active”.

Regarding `CC(C)c1ccc(CN(Cc2ccccc2)C2=NCC(CI)S2)cc1.I` (stereo unspecified), the values for the pIC50 in data set [1] and in data set [2] were 5.38 and 5.67, respectively. The negative logarithm of the Ki (pKi) is 5.87 in data set [3], 5.12 in data set [4] and 5.68 in data set [7]. For the same compound, the Activity result in data set [5] was “Non-toxic”. For the same compound, in data set [6], the IC50 entry was “Not Active”.

In the case of `I.ICC1CN=C(N(Cc2ccccc2)Cc2ccco2)S1` (stereo unspecified), the pIC50 in data set [1] was 4.38; in data set [2], 3.88. For the same compound, the IC50 result in data set [6] was “Not Active”.
